According to patent US20190099502A1, “TARGETING THE NEURONAL CALCIUM SENSOR 1 FOR TREATING WOLFRAM SYNDROME” (INSERM (INSTITUT NATIONAL DE LA SANTÉ ET DE LA RECHERCHE …, priority 2016, published 2019):
Where a SMILES comes first, the peptide text is derived from it. The star is where a group is joined. Cbz = O=C(OCc1ccccc1)*

Tested on: NCS1 expression
Experiment: Time course immunoblotting of NCS1 in fibroblasts treated with MG-132
Format: cell-based, human
Conditions: 10 μM MG-132, 16 h
Experimental: Immunoprecipitates were analysed by western blotting with antibodies against Flag and myc. Input represents cell lysate. n=3 independent experiments. (B) Transcript levels of WFS1 were quantified by RT-qPCR in control (C1, C2) and patient fibroblasts (P1, P2). The mRNA levels were normalized with reference gene L27. Error bars: SEM n=6 independent experiments. (C) Immunoblot of lysates from controls (C1, C2) and patient fibroblasts (P1, P2) with NCS1 antibody. GAPDH was used as a loading control. The immunoblot bands were quantified by densitometry, and the NCS1/GAPDH ratios were calculated (n=5 independent experiments). (D) Western analysis and quantification of control fibroblasts transfected with scramble siRNA (siScr) or WFS1 siRNA (siWFS1). WFS1 and NCS1 protein expression were analysed 72 h post-siRNA transfection. Data are represented as mean ±SEM from n=7 independent experiments *p<0.05, using Mann Whitney test. […]
GAPDH was used as a loading control. Quantification of NCS1 expression level after 16 h of MG-132 treatment normalized to GAPDH is shown. […]
To investigate NCS1 functions in WS, we took advantage of WFS1-null patient fibroblasts. […] We first examined the expression of WFS1 using quantitative PCR and western blot. […] Then, we analysed NCS1 mRNA and protein expression in patient cells. […]

`CC(C)C[C@@H](C=O)NC(=O)[C@H](CC(C)C)NC(=O)[C@H](CC(C)C)NC(=O)OCc1ccccc1` [MG-132] (Cbz-Leu-Leu-Leu-aldehyde) was tested, and the “effect on NCS1 expression” value (control cells) was “ineffective” and the “increase in NCS1 expression” value (patient fibroblasts, normalized to GAPDH) was “two-fold”.
